In BindingDB's records for doi:10.1021/np200492k (Seoul National University, 2011) one finds IC50 data, which are given here for two compounds.

In assay [1] the target is Isocitrate lyase (Candida albicans, UniProt Q9P8Q7). The experiment in a line: Inhibition of Candida albicans isocitrate lyase.
Assay [2] concerns the target T1, Sortase family protein (Staphylococcus aureus, UniProt Q9S446).
T1 sequence (Q9S446 whole entry): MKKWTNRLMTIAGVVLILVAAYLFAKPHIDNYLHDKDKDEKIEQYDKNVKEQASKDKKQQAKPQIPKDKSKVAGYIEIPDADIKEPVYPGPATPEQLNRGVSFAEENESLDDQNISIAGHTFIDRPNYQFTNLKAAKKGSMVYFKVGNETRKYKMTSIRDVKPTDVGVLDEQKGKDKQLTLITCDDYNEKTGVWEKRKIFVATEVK
The experiment in a line: Inhibition of recombinant Staphylococcus aureus ATCC 6538p sortase lacking the N-terminal membrane anchor domain expressed in Escherichia coli cells TOP10 using Dabcyl-QALPETGEE-Edans substrate measured after 1 hr by fluorescence S13 spectrophotometry.

Sequence of Isocitrate lyase (Q9P8Q7 whole entry): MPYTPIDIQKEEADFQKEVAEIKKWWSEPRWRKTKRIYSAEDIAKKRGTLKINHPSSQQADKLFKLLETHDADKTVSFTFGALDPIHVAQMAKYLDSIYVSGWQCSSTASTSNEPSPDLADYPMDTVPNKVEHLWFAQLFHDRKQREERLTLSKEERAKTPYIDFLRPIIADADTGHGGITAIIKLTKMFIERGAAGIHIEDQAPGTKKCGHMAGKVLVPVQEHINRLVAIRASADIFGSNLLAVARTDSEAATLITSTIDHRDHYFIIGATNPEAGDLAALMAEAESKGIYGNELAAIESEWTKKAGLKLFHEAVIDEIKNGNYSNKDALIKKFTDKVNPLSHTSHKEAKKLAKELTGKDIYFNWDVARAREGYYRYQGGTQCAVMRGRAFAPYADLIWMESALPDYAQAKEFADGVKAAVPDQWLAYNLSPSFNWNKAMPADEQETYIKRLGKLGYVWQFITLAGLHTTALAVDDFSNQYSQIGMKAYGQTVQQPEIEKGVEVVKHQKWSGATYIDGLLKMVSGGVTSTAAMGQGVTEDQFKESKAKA

`CC1(C)CCC[C@]2(C)[C@H]3CC/C(=C\OS(=O)(=O)O)[C@H](CCc4ccoc4)[C@@]3(C)CC[C@@H]12` showed an IC50 in assay [1] of 17 µM.

For `O=C(O)c1cc[c]([Hg][OH])cc1`, the IC50 in assay [2] was 116 µM.
